From PMC7343187, “Control of mRNA translation by dynamic ribosome modification” (PLoS Genetics, 2020)

Columns and labels:
RimK [1] = target: T1, RimK (Pseudomonas fluorescens, UniProt C3KE61); assay: PK/LDH-coupled ATPase assay; RpsF glutamation SDS-PAGE gel shift; format: biochemical; conditions: activator; ATPase with 25 uM cdG, 2.5 uM RimK, pH 9.0, 20 mM MgSO4, 25 °C
T1 construct: His6-tagged, expressed in E. coli BL21(DE3) pLysS, Ni-NTA purified
T1 sequence (C3KE61 1-301): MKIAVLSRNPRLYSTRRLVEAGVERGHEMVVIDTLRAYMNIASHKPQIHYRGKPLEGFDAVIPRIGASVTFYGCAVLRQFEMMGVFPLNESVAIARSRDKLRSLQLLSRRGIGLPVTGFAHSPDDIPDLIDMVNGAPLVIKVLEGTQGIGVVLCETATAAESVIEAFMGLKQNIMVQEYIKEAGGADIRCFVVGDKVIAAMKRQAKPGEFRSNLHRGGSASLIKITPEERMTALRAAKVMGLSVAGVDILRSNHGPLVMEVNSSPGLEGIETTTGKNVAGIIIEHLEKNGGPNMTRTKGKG

RimK [2] = target: T1, RimK; assay: PK/LDH-coupled ATPase assay (NADH oxidation); format: biochemical; conditions: 100 mM Tris-Cl pH 9.0, 20 mM MgSO4, 25 °C
RimK [3] = target: T1, RimK; assay: RpsF glutamation assay, SDS-PAGE and mass spectrometry; format: biochemical; conditions: acceptor RpsF10glu (SBW25); 20 mM ATP, 20 mM MgSO4, pH 9.0, room temperature
[4] = target: SBW25 RimK (Pseudomonas fluorescens SBW25) (UniProt C3KE61)

With Nc1nc2c(ncn2[C@@H]2O[C@@H]3COP(=O)(O)O[C@H]4[C@@H](O)[C@H](n5cnc6c(=O)[nH]c(N)nc65)O[C@@H]4COP(=O)(O)O[C@H]3[C@H]2O)c(=O)[nH]1 [cdG, cyclic-di-GMP] the “PK/LDH-coupled ATPase assay; RpsF glutamation SDS-PAGE gel shift” value (RimK [1]) was “cdG was shown to stimulate both ATPase activity (Fig 2A) and RpsF modification (Fig 2B)”.

For Nc1ncnc2c1ncn2[C@@H]1O[C@H](COP(=O)(O)OP(=O)(O)OP(=O)(O)O)[C@@H](O)[C@H]1O [ATP], the “PK/LDH-coupled ATPase assay (NADH oxidation)” value (RimK [2]) was “plotting the specific activity of the enzyme (nmol ATP hydrolyzed/min/mg protein) versus ATP concentration”.

N[C@@H](CCC(=O)O)C(=O)O [L-glutamate] was tested, and the “RpsF glutamation assay, SDS-PAGE and mass spectrometry” value (RimK [3]) was “addition of RimK resulted in unregulated modification of RpsF10glu in a glutamate-dependent manner”.

Work on SBW25 RimA (enzyme) yielded a Kd fitted to the RimK ATPase activity data of Fig 2E with the four-state kinetic model (RimK, RimK.RimA, RimK.cdG, RimK.cdG.RimA) [4] of 200 nM and a Kd fitted to the RimK ATPase activity data of Fig 2E with the two-state kinetic model (RimK, RimK*), which the paper calls unlikely [4] of 83.2 nM.
